Measurements taken from patent publication US9695155B2, “Herbicidal substituted pyrimidinyloxy benzene compounds” (E. I. DU PONT DE NEMOURS AND COMPANY, priority 2013, dated 2017).

Columns and labels:
large (Lg) crabgrass [1] = experiment: Test A postemergence; assay type: in vivo, Digitaria sanguinalis
In short: (§1)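 Compounds in non-phytotoxic solvent with surfactant applied as soil spray preemergence, or postemergence to plants 2-10 cm at one- to two-leaf stage, in loam/sand. After approximately 10 days in greenhouse, injury rated visually versus untreated controls, 0 (no effect) to 100 (complete control).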

wheat [2] = experiment: Test A preemergence; assay type: in vivo, Triticum aestivum; conditions: for Wheat plant response rating (0 to 100 scale): 125 g ai/ha; for Wheat plant response rating: 500 g ai/ha, 0 to 100 scale where 0 is no effect and 100 is complete control
In short: as §1

pigweed [3] = experiment: Test A postemergence; assay type: in vivo, Amaranthus retroflexus
In short: as §1

barnyardgrass [4] = experiment: Test B flooded paddy test; assay type: in vivo, Echinochloa crus-galli; conditions: Flood, 250 g ai/ha; 0 to 100 scale where 0 is no effect and 100 is complete control
In short: (§2)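 Greenhouse flooded-pot test: compounds dosed into 3 cm standing water over 2-leaf plants, flood held constant. Rated visually after 13–15 days on 0–100 (complete control = 100); a dash marks no test result.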

barnyardgrass [5] = experiment: Test A preemergence; assay type: in vivo, Echinochloa crus-galli; conditions: for Barnyardgrass plant response rating (0 to 100 scale, 0 is no effect, 100 is complete control): 125 g ai/ha; for Barnyardgrass plant response rating: 500 g ai/ha, 0 to 100 scale where 0 is no effect and 100 is complete control
In short: as §1

giant foxtail [6] = experiment: Test A postemergence; assay type: in vivo, Setaria faberii
In short: as §1

velvetleaf [7] = experiment: Test A preemergence; assay type: in vivo, Abutilon theophrasti; conditions: for Velvetleaf plant response rating (0 to 100 scale): 125 g ai/ha; for Velvetleaf plant response rating: 500 g ai/ha, 0 to 100 scale where 0 is no effect and 100 is complete control
In short: as §1

corn [8] = experiment: Test A preemergence; assay type: in vivo, Zea mays; conditions: for Corn plant response rating (0 to 100 scale): 125 g ai/ha; for Corn plant response rating: 500 g ai/ha, 0 to 100 scale where 0 is no effect and 100 is complete control
In short: as §1

wheat [9] = experiment: Test A postemergence; assay type: in vivo, Triticum aestivum
In short: as §1

corn [10] = experiment: Test A postemergence; assay type: in vivo, Zea mays
In short: as §1

giant foxtail [11] = experiment: Test A preemergence; assay type: in vivo, Setaria faberii; conditions: for Foxtail, Giant plant response rating (0 to 100 scale): 125 g ai/ha; for Foxtail, Giant plant response rating: 500 g ai/ha, 0 to 100 scale where 0 is no effect and 100 is complete control
In short: as §1

rice = experiment: Test B flooded paddy test; assay type: in vivo, Oryza sativa; conditions: Flood, 250 g ai/ha; 0 to 100 scale where 0 is no effect and 100 is complete control
In short: as §2

barnyardgrass [12] = experiment: Test A postemergence; assay type: in vivo, Echinochloa crus-galli
In short: as §1

morningglory [13] = experiment: Test A preemergence; assay type: in vivo, Ipomoea spp.; conditions: for Morningglory plant response rating (0 to 100 scale): 125 g ai/ha; for Morningglory plant response rating: 500 g ai/ha, 0 to 100 scale where 0 is no effect and 100 is complete control
In short: as §1

Heteranthera limosa = experiment: Test B flooded paddy test; assay type: in vivo; conditions: Flood, 250 g ai/ha; 0 to 100 scale where 0 is no effect and 100 is complete control
In short: as §2

pigweed [14] = experiment: Test A preemergence; assay type: in vivo, Amaranthus retroflexus; conditions: for Pigweed plant response rating (0 to 100 scale): 125 g ai/ha; for Pigweed plant response rating: 500 g ai/ha, 0 to 100 scale where 0 is no effect and 100 is complete control
In short: as §1

velvetleaf [15] = experiment: Test A postemergence; assay type: in vivo, Abutilon theophrasti
In short: as §1

morningglory [16] = experiment: Test A postemergence; assay type: in vivo, Ipomoea spp.
In short: as §1

sedge, umbrella = experiment: Test B flooded paddy test; assay type: in vivo, Cyperus difformis; conditions: Flood, 250 g ai/ha; 0 to 100 scale where 0 is no effect and 100 is complete control
In short: as §2

large (Lg) crabgrass [17] = experiment: Test A preemergence; assay type: in vivo, Digitaria sanguinalis; conditions: for Crabgrass, Large plant response rating (0 to 100 scale): 125 g ai/ha; for Crabgrass, Large plant response rating: 500 g ai/ha, 0 to 100 scale where 0 is no effect and 100 is complete control
In short: as §1

[18] = 125 g ai/ha, 0 to 100 scale where 0 is no effect and 100 is complete control
[19] = 500 g ai/ha, 0 to 100 scale where 0 is no effect and 100 is complete control
[20] = 125 g ai/ha, 0 to 100 scale, 0 no effect, 100 complete control

## N#Cc1cnn(-c2c(C=O)cccc2Oc2ncc(Cl)cn2)c1 [Compound 237]
Large (Lg) crabgrass [1]; [18]
  Crabgrass, Large plant response rating: 0
Large (Lg) crabgrass [1]; [19]
  Plant response rating, Crabgrass, Large: 0
Wheat [2]
  Wheat plant response rating (0 to 100 scale): 0
  Wheat plant response rating: 0
Pigweed [3]; [18]
  Pigweed plant response rating: 30
Pigweed [3]; [19]
  Plant response rating, Pigweed: 70
Barnyardgrass [4]
  Plant response rating, Barnyardgrass: 0
Barnyardgrass [5]
  Barnyardgrass plant response rating (0 to 100 scale, 0 is no effect, 100 is complete control): 0
  Barnyardgrass plant response rating: 10
Giant foxtail [6]; [18]
  Foxtail, Giant plant response rating: 0
Giant foxtail [6]; [19]
  Plant response rating, Foxtail, Giant: 0
Velvetleaf [7]
  Velvetleaf plant response rating (0 to 100 scale): 0
  Velvetleaf plant response rating: 10
Corn [8]
  Corn plant response rating (0 to 100 scale): 0
  Corn plant response rating: 0
Wheat [9]; [18]
  Wheat plant response rating: 0
Wheat [9]; [19]
  Plant response rating, Wheat: 0
Corn [10]; [18]
  Corn plant response rating: 0
Corn [10]; [19]
  Plant response rating, Corn: 0
Giant foxtail [11]
  Foxtail, Giant plant response rating (0 to 100 scale): 0
  Foxtail, Giant plant response rating: 0
rice
  Plant response rating, Rice: 0
Barnyardgrass [12]; [18]
  Barnyardgrass plant response rating: 0
Barnyardgrass [12]; [19]
  Plant response rating, Barnyardgrass: 0
Morningglory [13]
  Morningglory plant response rating (0 to 100 scale): 0
  Morningglory plant response rating: 0
Heteranthera limosa
  Plant response rating, Ducksalad: 0
Pigweed [14]
  Pigweed plant response rating (0 to 100 scale): 0
  Pigweed plant response rating: 80
Velvetleaf [15]; [18]
  Velvetleaf plant response rating: 20
Velvetleaf [15]; [19]
  Plant response rating, Velvetleaf: 30
Morningglory [16]; [18]
  Morningglory plant response rating: 0
Morningglory [16]; [19]
  Plant response rating, Morningglory: 0
sedge, umbrella
  Plant response rating, Sedge, Umbrella: 0
Large (Lg) crabgrass [17]
  Crabgrass, Large plant response rating (0 to 100 scale): 0
  Crabgrass, Large plant response rating: 10

## N#Cc1cc(F)cc(Oc2ncc(Br)cn2)c1-n1cc(Br)cn1 [Compound 239]
Large (Lg) crabgrass [1]; [18]
  Crabgrass, Large plant response rating: 10
Large (Lg) crabgrass [1]; [19]
  Plant response rating, Crabgrass, Large: 70
Wheat [2]
  Wheat plant response rating (0 to 100 scale): 0
  Wheat plant response rating: 20
Pigweed [3]; [18]
  Pigweed plant response rating: 90
Pigweed [3]; [19]
  Plant response rating, Pigweed: 100
Barnyardgrass [4]
  Plant response rating, Barnyardgrass: 0
Barnyardgrass [5]
  Barnyardgrass plant response rating (0 to 100 scale, 0 is no effect, 100 is complete control): 20
  Barnyardgrass plant response rating: 100
Giant foxtail [6]; [18]
  Foxtail, Giant plant response rating: 20
Giant foxtail [6]; [19]
  Plant response rating, Foxtail, Giant: 70
Velvetleaf [7]
  Velvetleaf plant response rating (0 to 100 scale): 10
  Velvetleaf plant response rating: 20
Corn [8]
  Corn plant response rating (0 to 100 scale): 0
  Corn plant response rating: 10
Wheat [9]; [18]
  Wheat plant response rating: 0
Wheat [9]; [19]
  Plant response rating, Wheat: 0
Corn [10]; [18]
  Corn plant response rating: 0
Corn [10]; [19]
  Plant response rating, Corn: 20
Giant foxtail [11]
  Foxtail, Giant plant response rating (0 to 100 scale): 90
  Foxtail, Giant plant response rating: 100
rice
  Plant response rating, Rice: 30
Barnyardgrass [12]; [18]
  Barnyardgrass plant response rating: 0
Barnyardgrass [12]; [19]
  Plant response rating, Barnyardgrass: 80
Morningglory [13]
  Morningglory plant response rating (0 to 100 scale): 0
  Morningglory plant response rating: 30
Heteranthera limosa
  Plant response rating, Ducksalad: 65
Pigweed [14]
  Pigweed plant response rating (0 to 100 scale): 100
  Pigweed plant response rating: 100
Velvetleaf [15]; [18]
  Velvetleaf plant response rating: 50
Velvetleaf [15]; [19]
  Plant response rating, Velvetleaf: 60
Morningglory [16]; [18]
  Morningglory plant response rating: 40
Morningglory [16]; [19]
  Plant response rating, Morningglory: 40
sedge, umbrella
  Plant response rating, Sedge, Umbrella: 70
Large (Lg) crabgrass [17]
  Crabgrass, Large plant response rating (0 to 100 scale): 100
  Crabgrass, Large plant response rating: 100

## Brc1cnn(-c2ccccc2Oc2ncccn2)c1 [Compound 275]
Large (Lg) crabgrass [1]; [20]
  Plant response rating, Crabgrass, Large: 0
Large (Lg) crabgrass [1]; [19]
  Plant response rating, Crabgrass, Large: 20
Wheat [2]
  Wheat plant response rating (0 to 100 scale): 0
  Wheat plant response rating: 0
Pigweed [3]; [20]
  Plant response rating, Pigweed: 80
Pigweed [3]; [19]
  Plant response rating, Pigweed: 90
Barnyardgrass [4]
  Plant response rating, Barnyardgrass: 15
Barnyardgrass [5]
  Barnyardgrass plant response rating (0 to 100 scale, 0 is no effect, 100 is complete control): 0
  Barnyardgrass plant response rating: 0
Giant foxtail [6]; [20]
  Plant response rating, Foxtail, Giant: 0
Giant foxtail [6]; [19]
  Plant response rating, Foxtail, Giant: 30
Velvetleaf [7]
  Velvetleaf plant response rating (0 to 100 scale): 20
  Velvetleaf plant response rating: 60
Corn [8]
  Corn plant response rating (0 to 100 scale): 0
  Corn plant response rating: 0
Wheat [9]; [20]
  Plant response rating, Wheat: 0
Wheat [9]; [19]
  Plant response rating, Wheat: 0
Corn [10]; [20]
  Plant response rating, Corn: 0
Corn [10]; [19]
  Plant response rating, Corn: 0
Giant foxtail [11]
  Foxtail, Giant plant response rating (0 to 100 scale): 0
  Foxtail, Giant plant response rating: 70
rice
  Plant response rating, Rice: 15
Barnyardgrass [12]; [20]
  Plant response rating, Barnyardgrass: 0
Barnyardgrass [12]; [19]
  Plant response rating, Barnyardgrass: 0
Morningglory [13]
  Morningglory plant response rating (0 to 100 scale): 0
  Morningglory plant response rating: 0
Heteranthera limosa
  Plant response rating, Ducksalad: 30
Pigweed [14]
  Pigweed plant response rating (0 to 100 scale): 80
  Pigweed plant response rating: 90
Velvetleaf [15]; [20]
  Plant response rating, Velvetleaf: 60
Velvetleaf [15]; [19]
  Plant response rating, Velvetleaf: 90
Morningglory [16]; [20]
  Plant response rating, Morningglory: 10
Morningglory [16]; [19]
  Plant response rating, Morningglory: 50
sedge, umbrella
  Plant response rating, Sedge, Umbrella: 0
Large (Lg) crabgrass [17]
  Crabgrass, Large plant response rating (0 to 100 scale): 0
  Crabgrass, Large plant response rating: 70
